Measurements: US6806230B1, “Pyrimidine derivatives and herbicides containing them” (Kumiai Chemical Industry Co., Ltd., priority 1999, dated 2004)

Key:
Type in all cases: in vivo
[1] = tested on: barnyard grass (Ec); experiment: Test Example 2: herbicidal effects by upland soil treatment; design: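 0-5 growth inhibition grade; 5 = over 90%; 4 = 70-90%; 3 = 50-70%; 2 = 30-50%; 1 = 10-30%; 0 = under 10%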; details: dose 100 g active ingredient per 10 ares, examined on the 21st day after treatment, standards of Table 44
Summary of the method: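 Pre-emergence test: barnyard grass and green foxtail sown in upland soil, then soil surface sprayed with wettable-powder formulation at 100 g active ingredient per 10 ares (100 l per 10 ares). Grown in greenhouse; herbicidal effect scored on a rating scale 21 days after treatment.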

[2] = tested on: monochoria (Mo); experiment: Test Example 1: herbicidal effects by flooded paddy field treatment; design: herbicidal effects, Mo (monochoria):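 0-5 growth inhibition grade; 5 = over 90%; 4 = 70-90%; 3 = 50-70%; 2 = 30-50%; 1 = 10-30%; 0 = under 10%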; details: for Herbicidal effect index, Mo: dose 100 gai/10a, examined on 21st day after treatment, index 0-5 per Table 44; for herbicidal effects, Mo (monochoria): dose 100 g active ingredient per 10 ares, examined on the 21st day after treatment, standards of Table 44;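 for Herbicidal effect index, Mo: 0-5 growth inhibition grade; 5 = over 90%; 4 = 70-90%; 3 = 50-70%; 2 = 30-50%; 1 = 10-30%; 0 = under 10%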
Summary of the method: (§1)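 Seeds were sown in puddled paddy soil in pots and flooded to 3 cm. The next day a water-diluted wettable powder was dripped onto the water surface at 100 g active ingredient per 10 ares. Plants grew in a greenhouse, and herbicidal effect was scored on a rating scale 21 days after treatment.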

[3] = tested on: monochoria (Mo); experiment: Test Example 4: selectivity for a crop plant by flooded paddy field treatment; design: scale not given here; details: for Mo (herbicidal effects, index): dose 25 g active ingredient per 10 ares, examined on the 21st day after treatment; for Mo (herbicidal effect index): monochoria, dose 25 gai/10a, 21st day after treatment, index per Table 44
Summary of the method: (§2)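 Paddy soil in pots was puddled, weed seeds were sown, second-leaf-stage rice was transplanted, and the pots were flooded to 3 cm. The next day a water-diluted wettable powder was dropped onto the water surface at 25 g active ingredient per 10 ares. Herbicidal effect was scored on a rating scale 21 days after treatment in a greenhouse.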

[4] = tested on: barnyard grass (Eo); experiment: as above; design: scale not given here; details: for Eo (herbicidal effects, index): dose 25 g active ingredient per 10 ares, examined on the 21st day after treatment; for Eo (herbicidal effect index): barnyard grass, dose 25 gai/10a, 21st day after treatment, index per Table 44
Summary of the method: as §2

[5] = tested on: rice (Or); experiment: as above; design: scale not given here; details: rice transplanted at second leaf stage; for Or (effect on crop plant rice, index): dose 25 g active ingredient per 10 ares, examined on the 21st day after treatment; for Or (herbicidal effect index on crop): dose 25 gai/10a, 21st day after treatment, index per Table 44
Summary of the method: as §2

[6] = tested on: green foxtail (Se); experiment: Test Example 2: herbicidal effects by upland soil treatment; details: dose 100 g active ingredient per 10 ares, examined on the 21st day after treatment, standards of Table 44;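 note: 0-5 growth inhibition grade; 5 = over 90%; 4 = 70-90%; 3 = 50-70%; 2 = 30-50%; 1 = 10-30%; 0 = under 10%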
Description: In a 80 cm^2 plastic pot, upland soil was filled, and seeds of barnyard grass (Ec) and green foxtail (Se) were sown and covered with soil. A wettable powder prepared in accordance with Formulation Example 1 was diluted with water and uniformly applied to the soil surface by means of a small size spray at a rate of 100 l per 10 ares, so that the dose of the active ingredient would be 100 g per 10 ares. Thereafter, cultivation was carried out in a green house, and on the 21st day after the treatment, the herbicidal effects were examined in accordance with the standards as identified in Table 44.

[7] = tested on: barnyard grass (Eo); experiment: Test Example 1: herbicidal effects by flooded paddy field treatment; design: herbicidal effects, Eo (barnyard grass):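 0-5 growth inhibition grade; 5 = over 90%; 4 = 70-90%; 3 = 50-70%; 2 = 30-50%; 1 = 10-30%; 0 = under 10%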; details: for Herbicidal effect index, Eo: dose 100 gai/10a, examined on 21st day after treatment, index 0-5 per Table 44; for herbicidal effects, Eo (barnyard grass): dose 100 g active ingredient per 10 ares, examined on the 21st day after treatment, standards of Table 44;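 for Herbicidal effect index, Eo: 0-5 growth inhibition grade; 5 = over 90%; 4 = 70-90%; 3 = 50-70%; 2 = 30-50%; 1 = 10-30%; 0 = under 10%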
Summary of the method: as §1

Compound | herbicidal effects, Ec (barnyard grass) [1] | Herbicidal effect index, Mo [2] | Mo (herbicidal effects, index) [3] | Eo (herbicidal effects, index) [4] | Or (effect on crop plant rice, index) [5] | herbicidal effects, Se (green foxtail) [6] | Herbicidal effect index, Eo [7] | herbicidal effects, Mo (monochoria) [2] | Mo (herbicidal effect index) [3] | Eo (herbicidal effect index) [4] | Or (herbicidal effect index on crop) [5] | herbicidal effects, Eo (barnyard grass) [7]
CN(C(=O)Cc1ccccc1)C(c1cncnc1C(F)(F)Cl)C1CC1 (racemic) [Compound 1-91] | 4 | 5 | 5 | 5 | 1 | 5 | 5 |  |  |  |  | 
CN(C(=O)Cc1ccc(F)cc1)C(c1ccccc1)c1cncnc1C(F)(F)F (racemic) [Compound 1-36] | 5 | 5 | 5 | 5 | 1 | 5 | 5 |  |  |  |  | 
CC(C)C(c1cncnc1C(F)(F)F)N(C)C(=O)Cc1cc(F)ccc1F (racemic) [Compound 1-40] | 5 | 5 | 5 | 5 | 0 | 4 | 5 |  |  |  |  | 
Cc1ccc(CC(=O)N(C)C(c2cncnc2C(C)C)C(C)C)cc1 (racemic) [Compound 1-131] | 5 |  |  |  |  | 5 |  | 5 | 5 | 5 | 1 | 5
CCCN(C(=O)Cc1ccc(C)cc1)C(c1cncnc1C(F)(F)F)C(C)C (racemic) [Compound 1-62] | 4 | 5 | 5 | 5 | 1 | 4 | 5 |  |  |  |  | 
Cc1ccc(CC(=S)N(C)C(c2cncnc2C(F)(F)F)C(C)C)cc1 (racemic) [Compound 1-145] | 5 |  |  |  |  | 5 |  | 5 | 5 | 5 | 1 | 5
Cc1ccccc1OCC(=O)N(C)C(c1cncnc1C(F)(F)F)C(C)C (racemic) [Compound 1-134] | 5 |  |  |  |  | 5 |  | 5 | 5 | 5 | 0 | 5
CC(C)C(c1cncnc1C(F)(F)F)N(C)C(=O)COc1ccccc1F (racemic) [Compound 1-125] | 5 | 5 |  |  |  | 5 | 5 |  | 5 | 5 | 0 | 
CC(c1cncnc1C(C)(C)C)N(C)C(=O)Cc1ccc(Cl)cc1 (racemic) [1-190] | 4 |  |  |  |  | 4 |  | 5 | 5 | 5 | 0 | 5
CC(C)C(c1cncnc1C(F)(F)Cl)N(C)C(=O)Nc1ccccc1 (racemic) [Compound 1-38] | 5 | 5 | 5 | 5 | 0 | 4 | 5 |  |  |  |  | 
CCN(C(=O)Cc1ccc(Cl)cc1)C(c1cncnc1C(F)F)C(C)C (racemic) [Compound 1-170] | 5 |  |  |  |  | 5 |  | 5 | 5 | 5 | 1 | 5
Cc1cc(CC(=O)N(C)C(c2cncnc2C(F)(F)F)C(C)C)ccc1Cl (racemic) [Compound 1-120] | 5 | 5 |  |  |  | 4 | 5 |  | 5 | 5 | 0 | 
CC(C)C(c1cncnc1C(F)(F)F)N(C)C(=O)Cc1ccc(Cl)cc1Cl (racemic) [Compound 1-124] | 5 | 5 |  |  |  | 5 | 5 |  | 5 | 5 | 0 | 
CC(C)C(c1cncnc1C(F)(F)Cl)N(C)C(=O)Sc1ccccc1 (racemic) [Compound 1-17] | 4 | 5 | 5 | 5 | 1 | 4 | 5 |  |  |  |  | 
CC(C)C(c1cncnc1C(F)(F)F)N(C)C(=O)Cc1c(F)cccc1F (racemic) [Compound 1-123] | 5 | 5 |  |  |  | 5 | 5 |  | 5 | 5 | 1 | 
CC(C)C(c1cncnc1)N(C)C(=O)Cc1ccc(Cl)cc1 (racemic) [Compound 1-90] | 5 | 5 |  |  |  | 5 | 5 |  |  |  |  | 
CCN(C(=O)Cc1cccc(F)c1)C(c1cncnc1C(F)(F)F)C(C)C (racemic) [1-173] | 5 |  |  |  |  | 5 |  | 5 |  |  |  | 5
CC(C)C(c1cncnc1C(F)(F)F)N(C)C(=O)Cc1cccc(F)c1F (racemic) [Compound 1-148] | 5 |  |  |  |  | 5 |  | 5 |  |  |  | 5
CC(C)c1ncncc1C(C(C)C)N(C)C(=O)Cc1ccccc1 (racemic) [Compound 1-128] | 5 |  |  |  |  | 5 |  | 4 |  |  |  | 5
